# Measurements as given in ChEMBL document CHEMBL3507680, “University of Dundee, Gates Library screen for HepG2 cell viability”.
# Assay: Human HepG2 cell viability assay in 384 well format
# Assay type: toxicity, cell-based
# Set-up: dose 125 nL, time 70.5 hour; concentration not given beside the values
# Details: HepG2 cells, read-out: Inhibition
compound,measurement,value
COCCC(=O)N1CCC(NC(=O)c2cscc2C)CC1,cytotoxicity at 70.5 h,6.09%
COCC(O)CN1CCC(NC(=O)c2cscc2C)CC1 (stereo not drawn),cytotoxicity at 70.5 h,3.56%
CCOc1ccc(NC(=O)c2cc(C)c(C)o2)cc1CO,cytotoxicity at 70.5 h,26.7%
O=C(NCc1cccnc1)Nc1ccn(CC(F)F)n1,cytotoxicity at 70.5 h,-3.22%
N#CCCN(Cc1ccco1)C(=O)COC1CCCCC1,cytotoxicity at 70.5 h,21.5%
O=C1C(Sc2cnn[nH]2)CCCN1c1ccccc1F (stereo not drawn),cytotoxicity at 70.5 h,19%
O=C(NCc1cc(-c2ccccc2)no1)NCC1CCCO1 (stereo not drawn),cytotoxicity at 70.5 h,-0.266%
O=S(=O)(Cc1cc(-c2ccccc2)no1)CC1CCCO1 (stereo not drawn),cytotoxicity at 70.5 h,-8.25%
CCCN(Cc1cnn(C)c1)S(=O)(=O)c1ccc(F)c(C#N)c1,cytotoxicity at 70.5 h,-7.37%
COCC(=O)N1CCN(Cn2nc(C)c(Br)c2C)CC1,cytotoxicity at 70.5 h,-2.69%
CC(C)CN(CC(O)c1ccccc1)C(=O)Nc1nccs1 (stereo not drawn),cytotoxicity at 70.5 h,-6.61%
CCCN(Cc1cnn(C)c1)S(=O)(=O)c1cc(C)cc(F)c1,cytotoxicity at 70.5 h,23.3%
CCOc1cccc(NC(=O)c2cc(C)on2)n1,cytotoxicity at 70.5 h,-5.47%
Cc1cc(CSCc2csc(CS(C)(=O)=O)n2)no1,cytotoxicity at 70.5 h,2%
CC(C)C(NCc1ccc(Cn2cncn2)cc1)c1ccccc1 (stereo not drawn),cytotoxicity at 70.5 h,-3.88%
CCOCCOc1ccc(S(=O)(=O)N2CCc3c(nc[nH]c3=O)C2)cc1,cytotoxicity at 70.5 h,1.59%
CNC(=O)CN1CCC(CN(C)Cc2ccc(C)cc2C)CC1,cytotoxicity at 70.5 h,27.9%
COC(=O)COc1c(F)cc(Br)cc1C(C)=O,cytotoxicity at 70.5 h,-2.7%
Cc1ccc(S(N)(=O)=O)cc1C(=O)NC1CCCN(C)C1 (stereo not drawn),cytotoxicity at 70.5 h,1.47%
CN(CC(=O)NS(=O)(=O)c1cccs1)Cc1ccccc1,cytotoxicity at 70.5 h,7.04%
CN(CC(=O)NS(=O)(=O)c1ccsc1)Cc1ccccc1,cytotoxicity at 70.5 h,-6.37%
CN(C)C(=O)C1SCCc2ccccc21 (stereo not drawn),cytotoxicity at 70.5 h,-6.79%
Cc1cnc(CNC(=O)NC2CCCN(c3ccccc3F)C2)s1 (stereo not drawn),cytotoxicity at 70.5 h,-3.86%
Cc1cccc(C(=O)NCCNS(=O)(=O)c2cccs2)c1C,cytotoxicity at 70.5 h,-5.88%
CCOCCCC(=O)NCc1ccnc(N2CCN(C)CC2)c1,cytotoxicity at 70.5 h,4.8%
CCOc1ccc(-c2nc(CN(C)Cc3c(C)noc3C)cs2)cc1,cytotoxicity at 70.5 h,11.3%
O=C(Cn1cc(C2CC2)nn1)N(Cc1ccco1)CC1CCCO1 (stereo not drawn),cytotoxicity at 70.5 h,10.2%
Cc1ccccc1C(NC(=O)NCC1(O)CCC1)C1CC1 (stereo not drawn),cytotoxicity at 70.5 h,5.34%
COc1cc(C(=O)NC(C)c2cccs2)cc2c1OCCO2 (stereo not drawn),cytotoxicity at 70.5 h,-9.64%
CNC(=O)c1cc(NC(=O)NC2CC2)ccc1F,cytotoxicity at 70.5 h,-8.55%
Cc1cc(C)n(CC(C)NC(=O)NCc2c(C)cc(C)[nH]c2=O)n1 (stereo not drawn),cytotoxicity at 70.5 h,14.3%
CCC(NC(=O)c1cc(OC)c2c(c1)OCCO2)c1cccs1 (stereo not drawn),cytotoxicity at 70.5 h,-8.09%
COc1ccc2c(c1)NC(=O)C2OC(=O)CC(C)(C)C (stereo not drawn),cytotoxicity at 70.5 h,-9.54%
C=C(C)CN1CCC(NC(=O)Nc2ccc(F)c(C(=O)NC)c2)CC1,cytotoxicity at 70.5 h,21.9%
CC(NC(=O)NCC(C)(C)C(N)=O)c1nc(-c2ccccc2)cs1 (stereo not drawn),cytotoxicity at 70.5 h,-5.18%
O=C(CCc1cccs1)Nc1ccnn1C1CCS(=O)(=O)C1 (stereo not drawn),cytotoxicity at 70.5 h,-1.32%
Cc1nc(C)c(CNC(=O)N2CCN(c3ccc(Cl)cn3)CC2)s1,cytotoxicity at 70.5 h,-3.03%
Cc1cc(CNC(=O)N2CCN(c3ccc(Cl)cn3)CC2)c(C)o1,cytotoxicity at 70.5 h,18.2%
Cc1nc(CNC(=O)N2CCN(c3ccc(Cl)cn3)CC2)sc1C,cytotoxicity at 70.5 h,-3.28%
COc1c(Cl)cccc1NCc1csc(NC(C)=O)n1,cytotoxicity at 70.5 h,3.58%
O=S(=O)(Cc1ccon1)N1CCN(c2ccncc2Cl)CC1,cytotoxicity at 70.5 h,-11.7%
O=C(NCC1(O)CCC1)NC(c1cc(F)ccc1F)C1CC1 (stereo not drawn),cytotoxicity at 70.5 h,-6.17%
Cc1cc(N2CCCCC2)c(C#N)c(C)n1,cytotoxicity at 70.5 h,-5.91%
CCOc1c(F)cccc1C(=O)N(CC)C(C)c1cccnc1 (stereo not drawn),cytotoxicity at 70.5 h,-6.68%
CN(CCCNC(=O)C1CCc2cn[nH]c2C1)c1ccc(F)cc1 (stereo not drawn),cytotoxicity at 70.5 h,16.9%
N#CC1(NC(=O)CN2CCc3c(ncn3C3CC3)C2)CCCC1,cytotoxicity at 70.5 h,-2.71%
CC(C)Cc1noc(CC2CCS(=O)(=O)C2)n1 (stereo not drawn),cytotoxicity at 70.5 h,-6.88%
Cc1nnc(CN(C)CC(=O)N2CCCN(C3CCCC3)CC2)n1C,cytotoxicity at 70.5 h,-6.96%
COC(=O)CSCc1noc(-c2ccc(C)cc2)n1,cytotoxicity at 70.5 h,0.48%
CSCCC(NC(N)=O)C(=O)Nc1ccc(-n2cccn2)nc1 (stereo not drawn),cytotoxicity at 70.5 h,-7.37%
O=C(C1CCCCN1Cc1nccn1CC(F)(F)F)N1CCCC1 (stereo not drawn),cytotoxicity at 70.5 h,-2.02%
CN(Cc1ccc2c(c1)OCCO2)c1ncc(S(N)(=O)=O)s1,cytotoxicity at 70.5 h,8.35%
CCN(Cc1ccc2c(c1)OCO2)c1ncc(S(N)(=O)=O)s1,cytotoxicity at 70.5 h,1.59%
CC(C)c1nc2n(n1)CC(NCc1cc3ccccc3o1)CC2 (stereo not drawn),cytotoxicity at 70.5 h,12.7%
CN(C)c1ccc(C(=O)N(Cc2ccncc2)CC2CCCO2)nn1 (stereo not drawn),cytotoxicity at 70.5 h,-4.51%
O=C(Nc1cccnc1)NC1CCN(c2ccccc2OC(F)F)C1 (stereo not drawn),cytotoxicity at 70.5 h,-3.6%
CC(C)Cc1noc(CN(C)C2CCS(=O)(=O)C2)n1 (stereo not drawn),cytotoxicity at 70.5 h,-3.8%
COc1ccc(NC(=O)N2CCC(CSC)C2)cc1C (stereo not drawn),cytotoxicity at 70.5 h,2.45%
COC(CNC(=O)c1ccc(NC(C)=O)cc1)c1cccc(Cl)c1 (stereo not drawn),cytotoxicity at 70.5 h,-5.6%
NC(=O)C1CCCN1Cc1nccn1CC(F)(F)F (stereo not drawn),cytotoxicity at 70.5 h,10.6%
O=C(c1coc(-c2ccccc2)n1)N1CCS(=O)(=O)CC1,cytotoxicity at 70.5 h,-3.26%
O=C(c1coc(-c2ccccc2)n1)N1CCCC1,cytotoxicity at 70.5 h,3.66%
O=C(c1coc(-c2ccccc2)n1)N1CCCCC1,cytotoxicity at 70.5 h,-10.3%
Cc1c(C(=O)NC2CCCOC2)nnn1-c1ccc(Cl)cc1F (stereo not drawn),cytotoxicity at 70.5 h,-0.806%
CN(Cc1nc(C(C)(C)C)no1)C1CCS(=O)(=O)C1 (stereo not drawn),cytotoxicity at 70.5 h,6.01%
CC(CNC(=O)c1cccnc1)Oc1ccc(F)cc1 (stereo not drawn),cytotoxicity at 70.5 h,8.38%
CC(NC(=O)NCCC1=CCCCC1)c1nncn1C (stereo not drawn),cytotoxicity at 70.5 h,35.8%
CC(C)(C)c1noc(CN2CCCc3cc(OC(F)(F)F)ccc32)n1,cytotoxicity at 70.5 h,-2.73%
NC(=O)NC(=O)C(c1ccccc1)N1CCN(Cc2ccsc2)CC1 (stereo not drawn),cytotoxicity at 70.5 h,-7.31%
COc1ccc(OCCN(C)S(=O)(=O)c2cnn(C)c2)cc1,cytotoxicity at 70.5 h,-6.09%
O=C(NCC1CCC1)c1ccnc(-n2ccnc2)c1,cytotoxicity at 70.5 h,1.75%
O=C(NC1CCc2cc(Cl)ccc21)C1CCN(C(=O)C2CC2)CC1 (stereo not drawn),cytotoxicity at 70.5 h,-4.11%
Cc1cc(NCCC(=O)NC2CCCCC2)nc(-c2ccncc2)n1,cytotoxicity at 70.5 h,24.9%
CN1CCOC(CNC(=O)C2(c3cccc(Cl)c3)CC2)C1 (stereo not drawn),cytotoxicity at 70.5 h,-5.99%
Cc1cccc(C2(C(=O)NCC3CN(C)CCO3)CC2)c1 (stereo not drawn),cytotoxicity at 70.5 h,2.72%
Cc1cc(NCCC(=O)NC(C)C)nc(-c2ccncc2)n1,cytotoxicity at 70.5 h,3.03%
CN1CCOC(CNC(=O)C2(c3ccccc3)CCC2)C1 (stereo not drawn),cytotoxicity at 70.5 h,-5.1%
N#Cc1cccc(OCc2ccoc2C(=O)N2CCCCC2)c1,cytotoxicity at 70.5 h,3.19%
Cc1cc(C)cc(C(=O)NCCS(=O)(=O)N2CCSCC2)c1,cytotoxicity at 70.5 h,20.5%
COc1ccccc1OCC(=O)Nc1ncccc1C,cytotoxicity at 70.5 h,-3.19%
COCCN(Cc1ccc(F)cc1Cl)C(=O)c1cc(C)no1,cytotoxicity at 70.5 h,-1.27%
Cc1ccn(-c2ccccc2NCc2cccnc2)n1,cytotoxicity at 70.5 h,5.47%
Cc1ccc(S(C)(=O)=O)cc1C(=O)N(C)Cc1ccco1,cytotoxicity at 70.5 h,-3.41%
CCc1nc(C)c(C(=O)N2CCCC(c3noc(C)n3)C2)s1 (stereo not drawn),cytotoxicity at 70.5 h,-6.51%
CC(=O)N1CCN(C(=O)C(C)OCC(F)(F)F)CC1 (stereo not drawn),cytotoxicity at 70.5 h,33.2%
Cc1cccc(C)c1NC(=O)CN(C)C(C)c1nc(C(C)(C)C)no1 (stereo not drawn),cytotoxicity at 70.5 h,-88.9%
CCc1noc(C(C)N(C)CC(=O)Nc2ccc(Br)cc2C)n1 (stereo not drawn),cytotoxicity at 70.5 h,-96.5%
CC1(NC(=O)Cc2cccs2)CCS(=O)(=O)C1 (stereo not drawn),cytotoxicity at 70.5 h,-85.8%
Nc1cc(CCCNC(=O)NC2CCCC2)nn1-c1ccccc1,cytotoxicity at 70.5 h,-102%
CC(NC(=O)C1=NN(C)C(=O)CC1)c1ccc(Cl)cc1 (stereo not drawn),cytotoxicity at 70.5 h,-110%
CC(NC(=O)C1=NN(C)C(=O)CC1)c1cccc(Cl)c1 (stereo not drawn),cytotoxicity at 70.5 h,-85.8%
CCSc1cc(C(=O)NCCC(=O)N(C)C)ccn1,cytotoxicity at 70.5 h,-103%
Cc1ccc(C(=O)NCC(C)CN2CCCC2=O)c(=O)[nH]1 (stereo not drawn),cytotoxicity at 70.5 h,-113%
CCCc1cc(NC2CCc3nc(C)nn3C2)n2ncnc2n1 (stereo not drawn),cytotoxicity at 70.5 h,-112%
Cc1cnn(CC2CCCN2Cc2coc(-c3ccc(F)cc3)n2)c1 (stereo not drawn),cytotoxicity at 70.5 h,-115%
Cc1cc(NC2CCc3nc(C)nn3C2)n2ncnc2n1 (stereo not drawn),cytotoxicity at 70.5 h,-98.6%
O=C(NS(=O)(=O)c1ccccc1C(F)(F)F)c1cccc2c1OCCO2,cytotoxicity at 70.5 h,-75.1%
Cc1ccc(C)c(S(=O)(=O)NC(=O)c2cccc3c2OCCO3)c1,cytotoxicity at 70.5 h,-104%
COCCC(C)NC(=O)N1CCC(n2ccc(C(F)(F)F)n2)CC1 (stereo not drawn),cytotoxicity at 70.5 h,-98.6%
C[C@H]1CN(C(=O)c2cccc(F)c2Cl)CCN1S(C)(=O)=O,cytotoxicity at 70.5 h,-95.8%
O=C(NCc1ccon1)N1CCC(n2ccc(C(F)(F)F)n2)CC1,cytotoxicity at 70.5 h,-94.1%
CCc1noc(C(C)N(C)CC(=O)Nc2cccc(C)c2C)n1 (stereo not drawn),cytotoxicity at 70.5 h,20.2%
CCSc1cc(C(=O)NCC(C)(C)N(C)C)ccn1,cytotoxicity at 70.5 h,-90.6%
CC(OCC(F)(F)F)C(=O)N1CCOCC1 (stereo not drawn),cytotoxicity at 70.5 h,-99.6%
CCc1ncc2c(n1)CN(Cc1cnc(C)cn1)CC2,cytotoxicity at 70.5 h,-72.8%
CCc1noc(C(C)N(C)CC(=O)Nc2ccccc2Cl)n1 (stereo not drawn),cytotoxicity at 70.5 h,-89.8%
CCc1noc(C(C)N(C)CC(=O)Nc2ccc(Cl)c(C(F)(F)F)c2)n1 (stereo not drawn),cytotoxicity at 70.5 h,-97%
c1csc(-c2nc(CN3CCCCC3Cn3cccn3)co2)c1 (stereo not drawn),cytotoxicity at 70.5 h,-58%
Cc1nc(CN2CCc3cnc(C(C)C)nc3C2)oc1C,cytotoxicity at 70.5 h,-77.4%
CC(C)C(C(=O)N1CCCN(Cc2cscn2)CC1)n1cncn1 (stereo not drawn),cytotoxicity at 70.5 h,-4.6%
O=C(c1cc(Cl)c2c(c1)OCO2)N1CCN(c2cnccn2)CC1,cytotoxicity at 70.5 h,0.695%
Cc1ccc(C(=O)NC2CCN(Cc3nc(C(C)C)no3)CC2)s1,cytotoxicity at 70.5 h,-5.38%
Cc1c(CC(=O)N2CCSCC2)nnn1-c1cccc(Cl)c1,cytotoxicity at 70.5 h,23.4%
O=C(c1cccc(NCCOc2ccc(F)cc2)c1)N1CCOCC1,cytotoxicity at 70.5 h,4.98%
CC(C)C(C(=O)N1CCN(Cc2cscn2)CC1)n1cncn1 (stereo not drawn),cytotoxicity at 70.5 h,-1.99%
CC(C)(NC(=O)CCc1ccco1)c1ccc2c(c1)OCCO2,cytotoxicity at 70.5 h,-2.91%
NC(C(=O)N1CCSc2ccccc2C1)c1ccccc1 (stereo not drawn),cytotoxicity at 70.5 h,2.56%
CC(C)(C)c1cc(=O)[nH]c(C2(N)CCCCC2)n1,cytotoxicity at 70.5 h,-4.98%
